# According to paper PMC11928584, “H105A peptide eye drops promote photoreceptor survival in murine and human models of retinal degeneration” (Communications Medicine, 2025):
# Values joined by “and” are separate entries in the source; they are usually repeats but may differ in a detail not shown here. Identical values can stand only once. Where a SMILES comes first, the peptide text is derived from it.
# How the values were obtained:
# [1] = Fluorescence distribution of labeled peptides in retinal cross-sections; assay type: in vivo, C57BL/6J mice; conditions: Alexa Fluor 488-labeled peptide, eye drops, retinal cross-sections 1 h post-administration
# Excerpt: Fig. 1 Penetration and bioavailability of PEDF Peptides 17-mer, H105A, and R99A Delivered via Eye Drops in Mouse Retinas. a Peptide mapping and sequence. Tertiary structure of human PEDF highlighting the small peptide region with neurotrophic activity (17-mer) in blue (top). Primary structure of human PEDF showing the location of the 17-mer region (middle). Sequences of the 17-mer peptide and its variants, H105A and R99A (bottom). b In vivo detection of peptides. Fundus micrographs showing fluorescence from Alexa Fluor 488-labeled 17-mer, H105A, and R99A peptides in the eyes of C57BL/6J mice at P21 days after eye drop administration of 5 µl of peptide at 1 mg/ml (left). Fundus images were taken at 1, 3-, 6-, 24-, and 48 h post-administration. Quantification of fluorescence intensity over time post-administration (right). […] The amount of peptide was quantified from the fluorescence in retinal extracts using standard curves (Supplementary Fig. 1a). Each data point represents the amount of each peptide per eye with three eyes (n = 3) per time point. d Retinal cross-sections showing fluorescence distribution in the photoreceptor layer 1 h after applying eye drops as in Panel B. Representative images for labeled 17-mer, H105A, and R99A peptides are shown, with magnified areas of 17-mer and H105A indicated by dotted rectangles. […]
# [2] = test system: human iPSC-derived retinal organoids exposed to CSE; test: TUNEL staining of retinal organoid sections; assay type: cell-based; conditions: Figure 8f, individual values, n=5
# Description: Human iPSCs were differentiated into retinal organoids (ROs) following the protocol by Zhong et al.[41]. Briefly, on Day 0, hiPSC colonies were dissociated with dispase and grown in a suspension to form embryoid bodies, and slowly transitioned to neural induction media (DMEM/F12 (1:1), 1% N2 supplement (Invitrogen), 1 x minimum essential media-nonessential amino acids (NEAAs), 2 µg/ml heparin (Sigma)). On Day 7, EBs were seeded on Matrigel coated plates and maintained in neural induction media. On Day 16, the media was switched to the retinal differentiation medium (DMEM/F12 (3:1), 2% B27 (without vitamin A, Invitrogen), 1x NEAA and 1% antibiotic–antimycotic (Gibco)). Retinal domains were identified and lifted manually with tungsten needles between Day 21 and Day 26 under a phase contrast microscope. On day 30, the culture medium was transitioned to DMEM/F12 (3:1) with 2% B27, 1x NEAA, 1% antibiotic–antimycotic, 10% fetal bovine serum (FBS; Gibco), […] Taurine (Sigma), and 2 mM GlutaMAX (Invitrogen). Additionally, 1 µM retinoic acid supplement was introduced daily starting from day 63. On day 91, the medium was modified to DMEM/F12 (1:1) supplemented with 1% N2, 1 x NEAAs, 1% antibiotic–antimycotic, 10% FBS, […] Taurine and 2 mM GlutaMAX, and the concentration of retinoic acid supplementation was reduced to 0.5 µM for the remainder of the culture period. The use of hiPSCs in this study conforms to the University of Colorado Institutional Biosafety Committee standards. […]
# D180 ROs were treated with each of the 5 experimental conditions, as described above (n = 5 for each condition), washed with PBS three times, and fixed with 4% paraformaldehyde for 10 min at room temperature. […] Fluorescence images were acquired with a Nikon C2 Confocal Microscope A1 (Minato City, Tokyo, Japan) and stitched together using Nikon Elements Software. Images were analysed with Fiji. The relative area of positive immunostaining was calculated as a percentage of total retinal area. […]
SMILES,distribution of labeled peptide in photoreceptor layer [1],Relative TUNEL(+) area ([2]; CSE + peptide 1nM),Relative TUNEL(+) area ([2]; CSE + peptide 20nM)
CC[C@H](C)[C@H](NC(=O)[C@H](CC(C)C)NC(=O)[C@H](CC(=O)O)NC(=O)[C@H](Cc1ccc(O)cc1)NC(=O)[C@H](Cc1ccc(O)cc1)NC(=O)[C@H](CC(C)C)NC(=O)[C@H](C)NC(=O)[C@H](CCCNC(=N)N)NC(=O)[C@H](Cc1c[nH]cn1)NC(=O)[C@@H](NC(=O)[C@@H](NC(=O)[C@H](CO)NC(=O)[C@H](CCC(=O)O)NC(=O)[C@@H](NC(=O)[C@H](CCCNC(=N)N)NC(=O)[C@@H](N)CCC(N)=O)[C@@H](C)O)[C@@H](C)CC)[C@@H](C)CC)C(=O)N[C@@H](CO)C(=O)O [17-mer] (H-QRTESIIHRALYYDLIS-OH),decorated the OS in a punctuated fashion,,
CC[C@H](C)[C@H](NC(=O)[C@H](CC(C)C)NC(=O)[C@H](CC(=O)O)NC(=O)[C@H](Cc1ccc(O)cc1)NC(=O)[C@H](Cc1ccc(O)cc1)NC(=O)[C@H](CC(C)C)NC(=O)[C@H](C)NC(=O)[C@H](CCCNC(=N)N)NC(=O)[C@H](C)NC(=O)[C@@H](NC(=O)[C@@H](NC(=O)[C@H](CO)NC(=O)[C@H](CCC(=O)O)NC(=O)[C@@H](NC(=O)[C@H](CCCNC(=N)N)NC(=O)[C@@H](N)CCC(N)=O)[C@@H](C)O)[C@@H](C)CC)[C@@H](C)CC)C(=O)N[C@@H](CO)C(=O)O [H150A] (H-QRTESIIARALYYDLIS-OH),,2.16 and 2.78 and 3.68 and 2.70 and 2.54,1.75 and 2.66 and 2.53 and 2.94 and 1.87
